Results: patent US6770597B2, “Benzohydrazide derivatives as herbicides and desiccant compositions containing them” (Ishihara Sangyo Kaisha, Ltd., priority 2002, dated 2004)

Key:
Assay type in all cases: in vivo
[1] = test system: field corn (Zea mays L., var. Dekalb 535, CORN); assay: Greenhouse herbicide screen, pre-emerge application, crop damage rating; settings: PRE emergent, 14 days after application, rating scale 0-100
From the text: (§1) A standard greenhouse herbicide activity screening system was used to evaluate the herbicidal efficacy and crop safety of these test compounds. Seven broadleaf weed species including redroot pigweed (Amaranthus retrofiexus, AMARE), velvetleaf (Abutilon theophrasti, ABUTH), sicklepod (Cassia obtusifolia, CASOB), ivyleaf morningglory (Ipomoea hederacea, IPOHE), lambsquarters (Chenopodium album, CHEAL), common ragweed (Ambrosia artemisiifolia L., AMBEL), and cocklebur (Xanthium strumarium, XANST) were used as test species. Four grass weed species including green foxtail (Setaria viridis, SETVI), barnyardgrass (Echinochloa crus-galli, ECHCG), johnsongrass (Sorghum halepense, SORHA), and large crabgrass (Digitaria sanguinalis, DIGSA) were also used. In addition, four crop species, field corn (Zea mays L., var. Dekalb 535, CORN), soybean (Glycine max L., var. Pella 86, SOY), upland rice (Oryza sp., var.Cocodrie, RICE) and wheat (Triticum aestivum L.) were included.
(§2) All plants were grown in 10 cm square plastic pots which were filled with a sandy loam soil mix. For pre-emerge tests, seeds were planted one day prior to application of the test compounds. For post-emerge tests, seeds were planted 8-21 days prior to the test to allow emergence and good foliage development prior to application of the test substances. At the time of the post-emerge application, plants of all species were usually at the 2-3 leaf stage of development.
(§3) All test compounds were dissolved in acetone and applied to the test units in a volume of 187 l/ha. Test materials were applied at rates ranging from 15 g ai/ha to 1000 g ai/ha using a track sprayer equipped with a TJ8001E even flow flat fan spray nozzle. Plants were arranged on a shelf so that the top of the canopy (post-emerge) or top of the soil surface (pre-emerge) was 40-45 cm below the nozzle. Pressurized air was used to force the test solution through the nozzle as it was mechanically advanced (via electrically driven chain drive) over the top of all test plants/pots. This application simulates a typical commercial field herbicide application.
(§4) Pre-emergence tests were top watered immediately after treatment to incorporate the test materials, then routinely top-watered for normal growth. Post-emerge test units were always bottom-watered.
(§5) At 14 days after application of the test materials, phytotoxicity ratings were recorded. A rating scale of 0-100 was used as previously described in Research Methods in Weed Science, 2nd edition, B. Truelove, Ed., Southern Weed Science Society, Auburn University, Auburn, Ala., 1977. Briefly, “0” corresponds to no damage and “100” corresponds to complete death of all plants in the test unit. This scale was used both to determine efficacy against weed species and damage to crop species. Herbicide activity data for various compounds of this invention, which are shown by compound No. in Tables 1-12, are shown in Tables 13 and 14.

[2] = test system: upland rice (Oryza sp., var.Cocodrie, RICE); assay: as above; settings: PRE emergent, 14 days after application, rating scale 0-100
From the text: as §1, §2, §3, §4, §5

[3] = test system: green foxtail (Setaria viridis, SETVI); assay: Greenhouse herbicide screen, post-emerge application, phytotoxicity rating; settings: POST emergent, 14 days after application, scale 0-100
Method in brief: (§6)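 Sown 1 d (pre) or 8–21 d (post) ahead; sprayed 15–1000 g ai/ha in acetone, 187 l/ha; nozzle 40–45 cm above canopy/soil; scored 0–100 at day 14.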

[4] = test system: lambsquarters (Chenopodium album, CHEAL); assay: as above; settings: POST emergent, 14 days after application, scale 0-100
Method in brief: as §6

[5] = test system: ivyleaf morningglory (Ipomoea hederacea, IPOHE); assay: as above; settings: POST emergent, 14 days after application, scale 0-100
Method in brief: as §6

[6] = test system: large crabgrass (Digitaria sanguinalis, DIGSA); assay: as above; settings: POST emergent, 14 days after application, scale 0-100
Method in brief: as §6

[7] = test system: barnyardgrass (Echinochloa crus-galli, ECHCG); assay: as above; settings: POST emergent, 14 days after application, scale 0-100
Method in brief: as §6

[8] = test system: sicklepod (Cassia obtusifolia, CASOB); assay: as above; settings: POST emergent, 14 days after application, scale 0-100
Method in brief: as §6

[9] = test system: johnsongrass (Sorghum halepense, SORHA); assay: as above; settings: POST emergent, 14 days after application, scale 0-100
Method in brief: as §6

[10] = test system: common ragweed (Ambrosia artemisiifolia L., AMBEL); assay: as above; settings: POST emergent, 14 days after application, scale 0-100
Method in brief: as §6

[11] = test system: cocklebur (Xanthium strumarium, XANST); assay: as above; settings: POST emergent, 14 days after application, scale 0-100
Method in brief: as §6

[12] = test system: redroot pigweed (Amaranthus retrofiexus, AMARE); assay: as above; settings: POST emergent, 14 days after application
Method in brief: as §6

[13] = test system: velvetleaf (Abutilon theophrasti, ABUTH); assay: as above; settings: POST emergent, 14 days after application, scale 0-100
Method in brief: as §6

[14] = test system: green foxtail (Setaria viridis, SETVI); assay: Greenhouse herbicide screen, pre-emerge application, phytotoxicity rating; settings: PRE emergent, 14 days after application, rating scale 0-100
Method in brief: as §6

[15] = test system: lambsquarters (Chenopodium album, CHEAL); assay: as above; settings: PRE emergent, 14 days after application, rating scale 0-100
Method in brief: as §6

[16] = test system: ivyleaf morningglory (Ipomoea hederacea, IPOHE); assay: as above; settings: PRE emergent, 14 days after application, rating scale 0-100
Method in brief: as §6

[17] = test system: large crabgrass (Digitaria sanguinalis, DIGSA); assay: as above; settings: PRE emergent, 14 days after application, rating scale 0-100
Method in brief: as §6

[18] = test system: barnyardgrass (Echinochloa crus-galli, ECHCG); assay: as above; settings: PRE emergent, 14 days after application, rating scale 0-100
Method in brief: as §6

[19] = test system: sicklepod (Cassia obtusifolia, CASOB); assay: as above; settings: PRE emergent, 14 days after application, rating scale 0-100
Method in brief: as §6

[20] = test system: johnsongrass (Sorghum halepense, SORHA); assay: as above; settings: PRE emergent, 14 days after application, rating scale 0-100
Method in brief: as §6

[21] = test system: common ragweed (Ambrosia artemisiifolia L., AMBEL); assay: as above; settings: PRE emergent, 14 days after application, rating scale 0-100
Method in brief: as §6

[22] = test system: cocklebur (Xanthium strumarium, XANST); assay: as above; settings: PRE emergent, 14 days after application, rating scale 0-100
Method in brief: as §6

[23] = test system: redroot pigweed (Amaranthus retrofiexus, AMARE); assay: as above; settings: PRE emergent, 14 days after application, rating scale 0-100
Method in brief: as §6

[24] = test system: velvetleaf (Abutilon theophrasti, ABUTH); assay: as above; settings: PRE emergent, 14 days after application, rating scale 0-100
Method in brief: as §6

[25] = test system: field corn (Zea mays L., var. Dekalb 535, CORN); assay: Greenhouse herbicide screen, post-emerge application, crop damage rating; settings: POST emergent, 14 days after application, scale 0-100
From the text: as §1, §2, §3, §4, §5

[26] = test system: upland rice (Oryza sp., var.Cocodrie, RICE); assay: as above; settings: POST emergent, 14 days after application, scale 0-100
From the text: as §1, §2, §3, §4, §5

With `CCOC(=O)NNC(=O)c1cc(-n2c(=O)cc(C(F)(F)F)n(C)c2=O)c(F)cc1Cl` [Compound 1-23] the “crop damage rating CORN” value ([1]; 63 g ai/ha) was 80, the “crop damage rating CORN” value ([1]; 250 g ai/ha) was 100 and the “crop damage rating RICE” value ([2]; 63 g ai/ha) was 45. The “crop damage rating RICE” value ([2]; 250 g ai/ha) was 85, the “phytotoxicity rating SETVI” value ([3]; 63 g ai/ha) was 55 and the “phytotoxicity rating SETVI” value ([3]; 250 g ai/ha) was 99. The “phytotoxicity rating CHEAL” value ([4]; 63 g ai/ha) was 100, the “phytotoxicity rating CHEAL” value ([4]; 250 g ai/ha) was 100 and the “phytotoxicity rating IPOHE” value ([5]; 63 g ai/ha) was 98. For the same compound, the “phytotoxicity rating IPOHE” value ([5]; 250 g ai/ha) was 100, the “phytotoxicity rating DIGSA” value ([6]; 63 g ai/ha) was 75 and the “phytotoxicity rating DIGSA” value ([6]; 250 g ai/ha) was 75. The “phytotoxicity rating ECHCO” value ([7]; 63 g ai/ha) was 50, the “phytotoxicity rating ECHCO” value ([7]; 250 g ai/ha) was 75 and the “phytotoxicity rating CASOB” value ([8]; 63 g ai/ha) was 98. For the same compound, the “phytotoxicity rating CASOB” value ([8]; 250 g ai/ha) was 98, the “phytotoxicity rating SORHA” value ([9]; 63 g ai/ha) was 70 and the “phytotoxicity rating SORHA” value ([9]; 250 g ai/ha) was 99. The “phytotoxicity rating AMBEL” value ([10]; 63 g ai/ha) was 85, the “phytotoxicity rating AMBEL” value ([10]; 250 g ai/ha) was 100 and the “phytotoxicity rating XANST” value ([11]; 63 g ai/ha) was 100. The “phytotoxicity rating XANST” value ([11]; 250 g ai/ha) was 100, the “phytotoxicity rating AMARE” value ([12]; 63 g ai/ha, scale 0-100 (0 no damage, 100 complete death)) was 100 and the “phytotoxicity rating AMARE” value ([12]; 250 g ai/ha, scale 0-100) was 100. For the same compound, the “phytotoxicity rating ABUTH” value ([13]; 63 g ai/ha) was 100, the “phytotoxicity rating ABUTH” value ([13]; 250 g ai/ha) was 100 and the “phytotoxicity rating SETVI” value ([14]; 63 g ai/ha) was 55. The “phytotoxicity rating SETVI” value ([14]; 250 g ai/ha) was 99, the “phytotoxicity rating CHEAL” value ([15]; 63 g ai/ha) was 100 and the “phytotoxicity rating CHEAL” value ([15]; 250 g ai/ha) was 100. For the same compound, the “phytotoxicity rating IPOHE” value ([16]; 63 g ai/ha) was 98, the “phytotoxicity rating IPOHE” value ([16]; 250 g ai/ha) was 100 and the “phytotoxicity rating DIGSA” value ([17]; 63 g ai/ha) was 75. For the same compound, the “phytotoxicity rating DIGSA” value ([17]; 250 g ai/ha) was 75, the “phytotoxicity rating ECHCG” value ([18]; 63 g ai/ha) was 50 and the “phytotoxicity rating ECHCG” value ([18]; 250 g ai/ha) was 75. The “phytotoxicity rating CASOB” value ([19]; 63 g ai/ha) was 98, the “phytotoxicity rating CASOB” value ([19]; 250 g ai/ha) was 98 and the “phytotoxicity rating SORHA” value ([20]; 63 g ai/ha) was 70. The “phytotoxicity rating SORHA” value ([20]; 250 g ai/ha) was 99, the “phytotoxicity rating AMBEL” value ([21]; 63 g ai/ha) was 85 and the “phytotoxicity rating AMBEL” value ([21]; 250 g ai/ha) was 100. The “phytotoxicity rating XANST” value ([22]; 63 g ai/ha) was 100, the “phytotoxicity rating XANST” value ([22]; 250 g ai/ha) was 100 and the “phytotoxicity rating AMARE” value ([23]; 63 g ai/ha) was 100. For the same compound, the “phytotoxicity rating AMARE” value ([23]; 250 g ai/ha) was 100, the “phytotoxicity rating ABUTH” value ([24]; 63 g ai/ha) was 100 and the “phytotoxicity rating ABUTH” value ([24]; 250 g ai/ha) was 100. The “crop damage rating CORN” value ([25]; 63 g ai/ha) was 80, the “crop damage rating CORN” value ([25]; 250 g ai/ha) was 100 and the “crop damage rating RICE” value ([26]; 63 g ai/ha) was 45. The “crop damage rating RICE” value ([26]; 250 g ai/ha) was 85.
